Experimental data from patent US20230255943A1, “MMP-9 AND MMP-12 INHIBITION FOR TREATING SPINAL CORD INJURY OR RELATED INJURY TO NEUROLOGICAL TISSUE” (The University of Birmingham, priority 2020, published 2023).

Columns and labels:
mice with CC SCI = test: Assessment of neuropathic pain (mechanical, thermal, cold allodynia) in CC model; assay type: in vivo, mouse
Experimental: CC SCI was administered at the T7-T8 vertebral level after exposure of T6-T9 by laminectomy. The aneurysm clip applicator was oriented in a bilateral direction and an aneurysm clip with a closing force of 24 g was applied extradurally for 60 s, as described previously (A. S. Rivlin, C. H. Tator, Effect of duration of acute spinal cord compression in a new acute cord injury model in the rat. Surg Neurol 10, 38-43 (1978):E. Esposito, I. Paterniti, E. Mazzon, T. Genovese, M. Galuppo, R. Meli, P. Bramanti, S. Cuzzocrea, MK801 attenuates secondary injury in a mouse experimental compression model of spinal cord trauma. BMC Neurosci 12, 31 (2011)).
The urinary bladders were manually emptied twice daily until bladder function was regained. Adult male C57BL6 mice (25-30 g) (Charles River, Margate, UK) were randomly allocated to either: (1), Sham (control; laminectomy but no CC SCI); (2), CC SCI+vehicle; (3), CC SCI+200 mg/kg AZD1236 (oral); (4), CC SCI+5 mg/kg AZD1236 (it). All experiments were performed with n=6 mice/group and repeated on 3 independent occasions (total=18 mice/group/test).
Mechanical allodynia was measured in mice using a series of von Frey filaments (0.25 g-15 g) applied to the plantar surface of the hind-paw by an experimenter masked to the treatment conditions and withdrawal of the paw was recorded as a positive response (F. Nasirinezhad, S. Gajavelli, B. Priddy, S. Jergova, J. Zadina, J. Sagen, Viral vectors encoding endomorphins and serine histogranin attenuate neuropathic pain symptoms after spinal cord injury in rats. Mol Pain 11, 2 (2015)).
The hair with the lowest force required to elicit a paw withdrawal response was recorded. […]
Thermal hyperalgesia was tested using established methods of plantar heat sensitivity tests described previously (S. Surey, M. Berry, A. Logan, R. Bicknell, Z. Ahmed, Differential cavitation, angiogenesis and wound-healing responses in injured mouse and rat spinal cords. Neuroscience 275, 62-80 (2014)). […] The reaction time of paw withdrawal was recorded for five separate tests for each hind limb with a 30-s interval before re-testing on the same paw. […]
Cold allodynia was measured by an experimenter masked to the treatment conditions as the number of foot withdrawal responses after application of an acetone drop to the plantar surface of the paw (F. Nasirinezhad, S. Gajavelli, B. Priddy, S. Jergova, J. Zadina, J. Sagen, Viral vectors encoding endomorphins and serine histogranin attenuate neuropathic pain symptoms after spinal cord injury in rats. Mol Pain 11, 2 (2015)). Testing was repeated five times with an interval of 5 min between each test and the response frequency to acetone was expressed as a percent response frequency ([number of paw withdrawals/number of trials]×100).

[1] = test system: mice with DC crush injury; test: Immunohistochemistry of scar tissue (laminin, Sema-3A, CS-56) at lesion site; assay type: in vivo, mouse; details: for attenuation of laminin immunoreactivity (scar tissue): 4 weeks after DC injury
From the text: After killing animals by exposure to rising concentrations of CO2, mice were intracardially perfused with 4% formaldehyde (TAAB Laboratories, Berkshire, UK) in 0.1M phosphate buffered saline (PBS). The lesion site+5 mm either side were dissected out, post-fixed in 4% formaldehyde and subjected to a graded series of sucrose solutions for cryoprotection. Spinal cords were blocked in OCT mounting compound (TAAB laboratories), sectioned longitudinally at 15 μm-thick using a cryostat (Brights Instruments, Huntingdon, UK) before being collected on charged glass slides (ThermoFisher Scientific, Loughborough, UK) and kept at −20° C. until required. Slides were numbered consecutively and sections from the middle of the lesion site were chosen for all immunohistochemical analyses, as described by previously (Surey S, Berry M, Logan A, Bicknell R, Ahmed Z. Differential cavitation, angiogenesis and wound-healing responses in injured mouse and rat spinal cords. Neuroscience 2014; 275: 62-80).
Fluorescent immunohistochemistry was performed as described previously (S. Surey, M. Berry, A. Logan, R. Bicknell, Z. Ahmed, Differential cavitation, angiogenesis and wound-healing responses in injured mouse and rat spinal cords. Neuroscience 275, 62-80 (2014)). […] Laminin was detected at 4 weeks after DC injury and treatment using a rabbit polyclonal anti-laminin primary antibody (ab11575; 1:400 dilution, Abcam). Macrophages were detected with a rabbit polyclonal anti-CD68 antibody (ab1525212; 1:500 dilution, Abcam); microglia were detected using a rabbit polyclonal antibody to CD11b (ab128797, 1:500 dilution, Abcam); GFAP was detected using a polyclonal anti-GFAP antibody (SAB5700611, 1:400 dilution, Sigma) were all detected at 10 days after DC injury and treatment. Semaphorin-3A (Sema-3A) and chondroitin sulphate proteoglycan (CSPG) was detected using monoclonal anti-CS-56 antibody (C8035; 1:200 dilution, Sigma) at 7 days after injury. […] CTB labelled axons in the mouse were detected using a goat polyclonal anti-CTB antibody (#703; 1:1000 dilution, List Biological Labs) at 6 weeks after DC injury.
All analyses were performed by investigators masked to the experimental groups. Relative fluorescent staining intensity was calculated by image analysis as described previously (Surey S, Berry M, Logan A, Bicknell R, Ahmed Z. Differential cavitation, angiogenesis and wound-healing responses in injured mouse and rat spinal cords. Neuroscience 2014; 275: 62-80). Briefly, photomicrographs taken at 5× magnification using the same standardized exposure settings throughout for each antibody were thresholded and the mean integrated intensity of pixels/unit area for each antibody was recorded Using ImageJ (NIH, USA) from n=12 mice/antibody.

[2] = immediate or delayed by 24 h, 7 days (8 days delayed group)

Question: Which results are given for C[C@]1(CS(=O)(=O)N2CC=C(C#Cc3cnc(C4CC4)nc3)CC2)NC(=O)NC1=O [AZD1236]?
Answer: cold allodynia, improvement (mice with CC SCI; oral delivery): > 80 % of sham-treated controls; mechanical allodynia, improvement (mice with CC SCI; oral delivery): > 80 % of sham-treated controls; thermal allodynia, improvement (mice with CC SCI; oral delivery): > 80 % of sham-treated controls; improvements in mechanical, thermal and cold allodynia vs pregabalin and gabapentin (mice with CC SCI; pregabalin 30 mg/kg, gabapentin 100 mg/kg): significantly better; attenuation of laminin immunoreactivity (scar tissue) ([1]; 24 hour delayed): > 77%; attenuation of CS-56 immunoreactivity at the lesion site [1, 2]: > 81%; attenuation of Sema-3A immunoreactivity at the lesion site [1, 2]: > 84%; attenuation of laminin immunoreactivity (scar tissue) ([1]; immediately after injury): > 80%
